The values below come from ChEMBL document CHEMBL1201862, “PubChem BioAssay data set” (2004).

The source made the active and inactive calls. Some results are limits rather than exact numbers.

In assay [1] the target is T1, Disintegrin and metalloproteinase domain-containing protein 17 (Homo sapiens, UniProt P78536). Briefly: exosite inhibitors of ADAM17, dose response, biochemical (AID 743260).
The nature of assay [2]: inhibition of ADAM10 peptide cleavage – biochemical, FRET peptide substrate, recombinant human ADAM10, selectivity assay for ADAM17 exosite inhibitor project, dose response (AID 743259).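 Further: ADAM10 enzyme cleaving a FRET peptide substrate.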
The nature of assay [3]: toxicity toward HepG2 hepatoma cells – cell-based, dry powder samples, cytotoxicity control, dose response (AID 720568). It counts as functional.
Assay [4] concerns the target Induced myeloid leukemia cell differentiation protein Mcl-1 (Homo sapiens, UniProt Q07820). Description: blockers of MCL1 binding to BIM peptide – biochemical, fluorescence polarization, BIM-BH3 peptide, 1536-well, dose response (AID 2217).
The target of a further assay is T2, Caspase-6 (Homo sapiens, UniProt P55212).
T2 sequence (P55212 whole entry): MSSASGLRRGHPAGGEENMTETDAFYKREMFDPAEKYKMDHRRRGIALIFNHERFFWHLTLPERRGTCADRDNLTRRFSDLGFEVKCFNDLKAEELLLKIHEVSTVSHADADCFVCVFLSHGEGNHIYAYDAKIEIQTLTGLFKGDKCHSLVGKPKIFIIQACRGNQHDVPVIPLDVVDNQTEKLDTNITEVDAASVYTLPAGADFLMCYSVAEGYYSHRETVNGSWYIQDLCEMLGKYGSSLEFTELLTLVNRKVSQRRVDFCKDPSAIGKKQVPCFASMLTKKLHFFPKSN
Description: inhibition of CASP6 peptide cleavage – biochemical, VEID-R110 fluorescence, cherry-pick, dose response (AID 720632).

The next assay deals with Bcl-2-like protein 1 (Homo sapiens, UniProt Q07817). Briefly: blockers of BCLXL peptide binding – biochemical, fluorescence polarization, 1536-well, selectivity assay for MCL1 inhibitor project, dose response (AID 2218).
Another assay concerns the target Caspase-7 (Homo sapiens, UniProt P55210). Description: caspase-7 enzyme inhibition, selectivity check – biochemical, DEVD-R110 fluorescence, cherry-pick, selectivity assay for caspase-6 inhibitor project, dose response (AID 743295). In kind it is functional.
Another assay deals with Caspase-8 (Homo sapiens, UniProt Q14790). Description: inhibitors of purified CASP8 protease – biochemical, Z-IETD-R110 fluorescence, cherry-picked samples, selectivity assay for caspase-6 inhibitor project, dose response (AID 743294).
Assay [5] in a line: growth inhibition of yeast DHODH-expressing 3D7 parasites – SYBR Green, dry powder samples, dose response (AID 1159570).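 Further: parasite growth measured after 72 hours of compound exposure.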 It counts as functional, cell-based.
The nature of assay [6]: P. falciparum Dd2 growth inhibitors, dose response, SYBR Green, cherry-picked samples (AID 1159567). In kind it is functional, cell-based.
Assay [7] can be described thus: Dd2 malaria parasite growth inhibition potency – SYBR Green, dry powder samples, dose response (AID 1159566).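 Further: potency for growth inhibition with lower SYBR green DNA signal.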 It counts as functional, cell-based.
The nature of assay [8]: toxicity to human hepatoma HepG2 cells – cell-based, cherry-picked samples, cytotoxicity control, dose response (AID 1159577). It counts as functional.
Assay [9] in a line: viability loss in LCL cells – cell-based, plate reader, dry powder, set 2, cytotoxicity control, dose response (AID 624367). It counts as functional.
A short description of assay [10]: growth inhibition of PfATP4-mutant resistant parasites – NITD609-resistant line, SYBR Green, dry powder, dose response (AID 1159571).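 Further: parasites synchronized at ring stage by sorbitol before testing.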 In kind it is functional, cell-based.
Assay [11] is described as follows: toxicity to human HepG2 hepatoma cells – cell-based, plate reader, dry powder samples, cytotoxicity control, dose response (AID 1159569).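 Further: inhibitor potency with signal falling toward the positive control level.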 In kind it is functional.
Assay [12] in a line: luciferase signal loss, tTA control fusion, HeLa F-luc tTA cells, dry powder, counter-screen for HIV Env fusion inhibitor project, dose response (AID 687021). In kind it is functional, cell-based.
Assay [13] is described as follows: Luminescence Cell-Based Dose Retest to Confirm Inhibitors of Cancer Stem Cells. [Related pubchem assays (depositor defined):AID2717, AID2721]. In kind it is functional. To be noted: Homo sapiens.
Assay [14] can be described thus: potency of ADAM10 substrate cleavage blockers – biochemical, QFRET, dose response (AID 743254).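 Further: ADAM10 enzyme with the DM2 quenched FRET peptide as substrate; EDANS fluorescence gain as the protease cuts the substrate; inhibitor potency against ADAM10 proteolytic activity.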
In assay [15] the target is T1, Disintegrin and metalloproteinase domain-containing protein 17. Description: inhibition of ADAM17 substrate cleavage – biochemical, quenched FRET substrate, counter-screen for ADAM10 exosite inhibitor project, dose response (AID 743253).
Assay [16] concerns the target Protein disulfide-isomerase (Homo sapiens, UniProt P07237). Description: inhibition of PDI-mediated insulin reduction – biochemical, turbidity, dry powder samples, set 2, confirmation (AID 652146).

T1 sequence (P78536 whole entry, the tested form may be a part): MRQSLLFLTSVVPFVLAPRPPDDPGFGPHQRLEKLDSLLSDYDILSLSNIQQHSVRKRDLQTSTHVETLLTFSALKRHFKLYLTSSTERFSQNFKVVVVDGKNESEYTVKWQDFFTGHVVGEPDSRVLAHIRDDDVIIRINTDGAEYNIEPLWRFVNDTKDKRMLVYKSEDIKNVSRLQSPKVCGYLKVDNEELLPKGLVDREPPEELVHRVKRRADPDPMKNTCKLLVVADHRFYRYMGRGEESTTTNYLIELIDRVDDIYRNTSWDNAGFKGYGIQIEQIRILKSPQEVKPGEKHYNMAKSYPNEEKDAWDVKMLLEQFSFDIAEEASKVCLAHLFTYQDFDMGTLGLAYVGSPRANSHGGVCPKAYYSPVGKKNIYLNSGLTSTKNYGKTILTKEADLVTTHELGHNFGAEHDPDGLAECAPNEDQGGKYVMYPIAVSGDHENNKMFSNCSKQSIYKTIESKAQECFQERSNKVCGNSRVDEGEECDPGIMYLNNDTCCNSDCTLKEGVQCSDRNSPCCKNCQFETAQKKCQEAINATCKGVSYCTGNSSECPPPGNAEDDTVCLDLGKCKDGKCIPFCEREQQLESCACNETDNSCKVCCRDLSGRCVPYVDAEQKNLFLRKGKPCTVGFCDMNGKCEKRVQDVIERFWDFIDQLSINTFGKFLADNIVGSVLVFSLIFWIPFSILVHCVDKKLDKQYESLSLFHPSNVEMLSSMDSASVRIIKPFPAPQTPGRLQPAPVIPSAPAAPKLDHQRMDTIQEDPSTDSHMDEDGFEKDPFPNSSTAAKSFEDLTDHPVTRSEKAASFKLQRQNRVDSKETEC
Chain of Induced myeloid leukemia cell differentiation protein Mcl-1 (Q07820 whole entry): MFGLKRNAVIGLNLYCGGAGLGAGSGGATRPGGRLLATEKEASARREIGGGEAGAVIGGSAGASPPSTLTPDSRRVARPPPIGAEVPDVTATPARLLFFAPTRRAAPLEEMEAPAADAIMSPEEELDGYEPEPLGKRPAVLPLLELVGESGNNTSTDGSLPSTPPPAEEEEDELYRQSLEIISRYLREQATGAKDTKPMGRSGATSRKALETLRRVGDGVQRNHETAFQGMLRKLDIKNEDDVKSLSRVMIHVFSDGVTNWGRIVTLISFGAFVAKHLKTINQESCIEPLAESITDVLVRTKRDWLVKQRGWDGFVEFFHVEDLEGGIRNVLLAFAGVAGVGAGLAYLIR
Chain of Bcl-2-like protein 1 (Q07817 whole entry): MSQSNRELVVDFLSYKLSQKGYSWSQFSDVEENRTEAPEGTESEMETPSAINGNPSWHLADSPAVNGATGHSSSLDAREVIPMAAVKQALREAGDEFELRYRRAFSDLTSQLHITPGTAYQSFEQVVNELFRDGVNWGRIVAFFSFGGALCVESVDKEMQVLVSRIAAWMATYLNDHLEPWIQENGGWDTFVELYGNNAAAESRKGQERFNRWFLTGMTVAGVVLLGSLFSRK
Chain of Caspase-7 (P55210 24-198 limits assumed): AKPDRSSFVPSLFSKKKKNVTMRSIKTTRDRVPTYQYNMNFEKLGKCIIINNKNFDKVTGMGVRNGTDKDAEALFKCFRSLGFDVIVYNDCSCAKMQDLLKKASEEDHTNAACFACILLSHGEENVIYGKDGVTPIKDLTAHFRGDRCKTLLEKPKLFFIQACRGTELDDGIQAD
Chain of Caspase-7 (P55210 207-303 limits assumed): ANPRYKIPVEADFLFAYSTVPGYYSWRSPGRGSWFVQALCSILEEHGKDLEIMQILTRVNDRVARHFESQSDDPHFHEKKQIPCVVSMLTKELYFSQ
Chain of Caspase-8 (Q14790 217-374 limits assumed): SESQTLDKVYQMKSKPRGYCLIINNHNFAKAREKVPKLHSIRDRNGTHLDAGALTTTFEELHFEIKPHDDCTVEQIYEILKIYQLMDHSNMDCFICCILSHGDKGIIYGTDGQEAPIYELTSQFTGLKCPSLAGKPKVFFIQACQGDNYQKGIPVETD
Chain of Caspase-8 (Q14790 385-479 limits assumed): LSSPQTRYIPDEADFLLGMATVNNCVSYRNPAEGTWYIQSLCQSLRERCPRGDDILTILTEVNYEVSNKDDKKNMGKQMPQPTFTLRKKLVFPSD
Chain of Protein disulfide-isomerase (P07237 whole entry): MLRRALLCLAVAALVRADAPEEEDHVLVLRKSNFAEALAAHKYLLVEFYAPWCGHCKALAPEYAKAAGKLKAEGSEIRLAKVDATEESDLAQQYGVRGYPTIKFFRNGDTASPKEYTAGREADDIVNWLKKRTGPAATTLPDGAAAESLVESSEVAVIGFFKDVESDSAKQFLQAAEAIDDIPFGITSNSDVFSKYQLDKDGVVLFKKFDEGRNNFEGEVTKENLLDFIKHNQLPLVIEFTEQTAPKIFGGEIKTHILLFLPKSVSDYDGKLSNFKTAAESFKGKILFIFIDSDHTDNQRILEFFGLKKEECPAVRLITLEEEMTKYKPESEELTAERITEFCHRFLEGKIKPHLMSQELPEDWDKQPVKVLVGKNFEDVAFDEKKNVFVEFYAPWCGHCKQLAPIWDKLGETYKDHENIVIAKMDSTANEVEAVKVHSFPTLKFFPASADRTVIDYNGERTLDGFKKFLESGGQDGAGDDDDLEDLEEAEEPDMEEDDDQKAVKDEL

Take `COc1ccc(CNC(=O)CN(Cc2ccc(Cl)cc2)S(=O)(=O)c2ccccc2)cc1`: the IC50 in assay [1] and in assay [2] was > 69.5 µM (inactive) throughout.

With `O=C1CCN(Cc2ccccc2)c2cc3ccccc3cc21`, in assay [3], the AC50 is > 30 µM (inactive).

In the case of `CCCCN(C(=O)c1cccc(-n2cccc2)c1)c1c(N)n(CCC)c(=O)[nH]c1=O`, the IC50 is on record as > 12.1 µM (not active) in assay [4] and > 109 µM (not active) at Bcl-2-like protein 1. Further, the AC50 at Caspase-6 is 1.93 µM (active); on Caspase-7, 51.2 µM (active); on Caspase-8, > 70 µM (inactive).

On to `N#C[C@H]1[C@H](c2ccc(C#Cc3ccccc3F)cc2)[C@H](CO)N1C(=O)c1cccnc1`, for which the AC50 in [5] was 1.83 µM (active); in assay [6], 1.58 µM (active); in assay [7], 1.59 µM (active); in assay [8], > 39 µM (inactive); in assay [10], 1.54 µM (active); in [11], > 100 µM (inactive). Further, in assay [9], the AbsAC35 was 50.14 µM.

As for `CC1(C)CC(NC(=O)C(=O)Nc2ccc(Cl)cc2)CC(C)(C)N1`, the AC50 in assay [12] was > 70 µM (inactive).

As to `Cc1cc(C)cc(NS(=O)(=O)c2ccc(Oc3ncc(C(F)(F)F)cc3Cl)cc2)c1`, in assay [13], the AC50 is 2.09 µM (active). Moreover, the IC50 is 12 µM (inactive) in assay [14] and > 69.5 µM (inactive) in assay [15].

In the case of `C=CCOc1ccc(CN2CCC(CCOc3ccccc3)(C(=O)OCC)CC2)cc1Cl`, the AC50 in assay [16] was > 30 µM (inactive).
